One may read the IC50 as the midpoint of a concentration-inhibition curve. For orientation: melting point means the temperature, or range, at which the solid turns liquid. As usually defined, the inhibition is how much of the control response was suppressed. By logP is commonly meant the decadic logarithm of the partition coefficient of the neutral form, usually between octanol and water. As usually defined, the Ki is a dissociation constant, usually derived from enzyme kinetics or from competition with a known ligand. In general, logD refers to the decadic logarithm of the distribution of all forms, ionised or not, between an organic phase and buffer at a given pH.

The source of these data is PMC6278313.

Where a chain is given by its changes, count along the chain named. Like-named read-outs stand apart in the source and are kept apart here. Where only a bound is given, the exact number is not on record here.

Data set [1] addresses T1, COX-2 (Macaca mulatta, UniProt F7BWZ9).
T1 sequence (F7BWZ9 18-604): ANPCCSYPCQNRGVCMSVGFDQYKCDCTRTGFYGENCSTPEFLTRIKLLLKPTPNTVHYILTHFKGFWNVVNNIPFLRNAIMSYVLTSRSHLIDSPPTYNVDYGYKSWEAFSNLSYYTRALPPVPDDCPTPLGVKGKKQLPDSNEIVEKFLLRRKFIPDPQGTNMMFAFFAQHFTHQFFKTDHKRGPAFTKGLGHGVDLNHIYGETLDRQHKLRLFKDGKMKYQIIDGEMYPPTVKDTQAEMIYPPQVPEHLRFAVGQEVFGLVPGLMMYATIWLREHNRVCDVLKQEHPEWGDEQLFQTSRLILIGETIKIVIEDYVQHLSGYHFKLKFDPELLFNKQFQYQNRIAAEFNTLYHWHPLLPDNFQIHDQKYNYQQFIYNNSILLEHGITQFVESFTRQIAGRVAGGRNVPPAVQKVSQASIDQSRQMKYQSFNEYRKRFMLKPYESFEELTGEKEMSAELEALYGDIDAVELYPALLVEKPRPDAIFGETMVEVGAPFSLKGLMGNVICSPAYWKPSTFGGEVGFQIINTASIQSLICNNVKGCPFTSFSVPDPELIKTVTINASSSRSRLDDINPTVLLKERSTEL
Description: COX-2 inhibition, monkey whole blood (Prostaglandin E2 EIA).
Description: (§1) Thromboxane B2 EIA kit (COX-1) and Prostaglandin E2 EIA Kit (COX-2) were purchased from Cayman Chemicals, USA [45]. Blood from non-treated rhesus monkey and healthy human subjects was used with these ELISA kits to establish the inhibitory potencies (IC50’s) of test compounds for these enzymes [46]. Thromboxane, the product of COX-1, and prostaglandin E2, the product of COX2, were measured using 96-well plates and a UV spectrophotometer. The concentration-inhibition curves were fitted into a 4-parameter non-linear regression model in GraphPad Prism to calculate the IC50 of each test compound.

A further data set has as its system benzodiazepine (BzP). Description: NIMH-PDSP radioligand binding screen, benzodiazepine site. More on the design: species or system rat. To be noted: 10 μM.
For the next data set, the system named is human COX-2. To be noted: cited from earlier work.
For data set [2], the target named is T2, COX-1 (Macaca mulatta, UniProt F6S984).
T2 sequence (F6S984 25-599): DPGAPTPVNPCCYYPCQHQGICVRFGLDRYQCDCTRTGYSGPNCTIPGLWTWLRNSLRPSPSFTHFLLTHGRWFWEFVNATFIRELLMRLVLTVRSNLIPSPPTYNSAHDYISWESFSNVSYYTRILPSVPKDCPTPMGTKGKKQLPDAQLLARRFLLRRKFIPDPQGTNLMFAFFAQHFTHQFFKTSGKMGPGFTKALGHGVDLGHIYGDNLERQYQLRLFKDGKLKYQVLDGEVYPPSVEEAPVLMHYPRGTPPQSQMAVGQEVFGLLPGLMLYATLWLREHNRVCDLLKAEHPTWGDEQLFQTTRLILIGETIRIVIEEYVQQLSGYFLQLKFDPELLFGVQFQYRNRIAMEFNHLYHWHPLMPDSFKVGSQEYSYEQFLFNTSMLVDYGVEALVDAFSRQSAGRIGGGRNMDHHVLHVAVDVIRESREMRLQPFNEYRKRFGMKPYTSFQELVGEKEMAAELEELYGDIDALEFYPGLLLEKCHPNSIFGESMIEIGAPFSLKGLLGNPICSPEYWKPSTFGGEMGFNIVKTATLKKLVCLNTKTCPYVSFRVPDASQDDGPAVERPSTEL
Briefly: COX-1 inhibition, monkey whole blood (Thromboxane B2 EIA).
Description: as §1

Data set [3] has as its target T3, COX-1 (Homo sapiens, UniProt P23219). Briefly: COX-1 inhibition, human whole blood (Thromboxane B2 EIA).
Description: as §1
The target in data set [4] is T3, COX-1. Details: endogenous in cells; host or cells: fresh human whole blood. To be noted: footnote c; SE <15%; read-out: IC50 COX-1 Human WB (literature); cited from earlier work.
The next data set deals with 5-HT1B (Homo sapiens, UniProt P28222). Briefly: NIMH-PDSP radioligand binding screen, 5-HT1B.
5-HT1B, sequence (P28222 whole entry): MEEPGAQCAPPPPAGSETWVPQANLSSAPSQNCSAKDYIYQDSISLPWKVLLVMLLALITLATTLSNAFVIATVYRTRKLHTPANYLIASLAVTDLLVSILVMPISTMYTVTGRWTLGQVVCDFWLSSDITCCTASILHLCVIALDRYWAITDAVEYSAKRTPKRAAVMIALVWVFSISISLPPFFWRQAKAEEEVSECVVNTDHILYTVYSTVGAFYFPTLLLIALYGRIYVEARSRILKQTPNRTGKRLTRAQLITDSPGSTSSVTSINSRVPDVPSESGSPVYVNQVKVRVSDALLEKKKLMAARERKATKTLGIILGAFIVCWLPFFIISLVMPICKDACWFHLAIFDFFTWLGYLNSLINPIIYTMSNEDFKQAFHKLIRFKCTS
Data set [5] concerns all tested receptors, transporters, and binding sites. Description: NIMH-PDSP radioligand binding screen, whole panel. To be noted: 10 μM; except the sites named for 17 and 27.
For data set [6], the target named is DAT (dopamine transporter) (Homo sapiens, UniProt Q01959). Description: NIMH-PDSP radioligand binding screen, DAT. Particulars: read-out: inhibition of radioligand binding at DAT.
DAT (dopamine transporter), sequence (Q01959 whole entry, species assumed): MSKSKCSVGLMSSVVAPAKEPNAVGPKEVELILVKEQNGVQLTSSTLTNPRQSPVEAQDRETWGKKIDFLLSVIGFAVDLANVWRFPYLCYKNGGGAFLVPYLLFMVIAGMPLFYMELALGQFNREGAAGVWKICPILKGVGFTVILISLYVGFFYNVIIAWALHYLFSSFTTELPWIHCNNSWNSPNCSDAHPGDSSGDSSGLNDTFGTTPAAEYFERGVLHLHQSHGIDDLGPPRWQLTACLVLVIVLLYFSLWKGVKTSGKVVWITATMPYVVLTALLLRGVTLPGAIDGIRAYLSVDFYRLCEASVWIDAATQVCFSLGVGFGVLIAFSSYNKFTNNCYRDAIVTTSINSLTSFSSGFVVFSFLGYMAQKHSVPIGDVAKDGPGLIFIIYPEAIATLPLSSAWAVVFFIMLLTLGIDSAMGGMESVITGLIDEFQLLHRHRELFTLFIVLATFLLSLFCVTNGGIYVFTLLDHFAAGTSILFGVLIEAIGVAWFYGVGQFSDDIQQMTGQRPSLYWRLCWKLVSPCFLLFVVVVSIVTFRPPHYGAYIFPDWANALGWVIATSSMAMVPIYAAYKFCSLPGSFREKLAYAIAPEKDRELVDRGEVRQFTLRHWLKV
The target of data set [7] is T4, COX-2 (Homo sapiens, UniProt P35354).
T4 construct: endogenous in cells; host or cells: fresh human whole blood
T4 sequence (P35354 18-604): T1 sequence (F7BWZ9 18-604) with Y7H, L49F, V101A, F150L, T163S, K191N, D208A, H211R, N363T, R570G
Description: COX-2 inhibition, human whole blood (Prostaglandin E2 EIA). In kind it is cell-based. Particulars: mean ± SD, triplicate unless d n = 1, e n = 2; read-out: IC50 COX-2 Human WB.

For data set [8] the following is noted: Chart 1; cited from earlier work.
Data set [9] relates to COX-2. Particulars: Chart 1; PET in vivo; ref literature cited in the text (18-30); cited from earlier work.
Data set [10] has as its target COX-2. Details: method as in literature cited in the text (18-30). To be noted: Chart 1; ref literature cited in the text (18-30); cited from earlier work.
A short description of data set [11]: Measured logD of radioligands (n-octanol / sodium phosphate buffer). The format is physicochemical. To be noted: n-octanol / sodium phosphate buffer 0.1 M pH 7.4; γ-counter. The protocol:
cLogD (at pH 7.4) values were computed with Pallas for Windows software version 3.8 in default mode (CompuDrug International; Bal Harbor, FL, USA). The logD values of [^11C]17, [^18F]20, and [d2-^18F]27 were measured by a method that we have described previously. The radioactivity contents in the n-octanol and sodium phosphate buffer (0.1 M; pH 7.4) phases were determined with a γ-counter.

T3 sequence (P23219 24-599): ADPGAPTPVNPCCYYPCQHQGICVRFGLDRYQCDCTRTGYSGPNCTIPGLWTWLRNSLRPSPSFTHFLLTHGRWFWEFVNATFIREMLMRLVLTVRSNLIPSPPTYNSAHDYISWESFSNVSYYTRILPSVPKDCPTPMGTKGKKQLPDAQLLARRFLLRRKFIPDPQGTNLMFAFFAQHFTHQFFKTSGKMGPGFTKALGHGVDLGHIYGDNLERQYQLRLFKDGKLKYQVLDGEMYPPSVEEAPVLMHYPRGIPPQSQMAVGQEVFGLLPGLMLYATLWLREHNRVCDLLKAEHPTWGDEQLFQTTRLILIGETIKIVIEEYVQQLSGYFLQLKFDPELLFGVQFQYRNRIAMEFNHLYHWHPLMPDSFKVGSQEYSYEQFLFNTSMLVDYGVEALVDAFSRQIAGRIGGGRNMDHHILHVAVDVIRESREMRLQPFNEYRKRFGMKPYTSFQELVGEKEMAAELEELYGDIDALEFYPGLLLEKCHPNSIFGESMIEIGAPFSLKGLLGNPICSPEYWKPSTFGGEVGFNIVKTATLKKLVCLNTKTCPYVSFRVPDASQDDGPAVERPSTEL

On to `COc1cc(NCc2cccs2)nc(-c2ccc(S(C)(=O)=O)cc2)n1` [Compound 17, 6-Methoxy-2-(4-(methylsulfonyl)phenyl)-N-(thiophen-2-ylmethyl)pyrimidin-4-amine], for which the melting point was in the range of 139 to 141 °C. On COX-2 [1], this compound displayed an IC50 of 2.58 ± 0.23 nM. For the same compound, the “inhibition of radioligand binding at benzodiazepine (BzP)” value in the data set with benzodiazepine (BzP) stood at 50.6%. For the same compound, the IC50 in the data set with human COX-2 (Table 1, human whole blood COX-2, SEM <15%, read-out: HWB IC50) was […]. Besides, the IC50 with human COX-2 (footnote c, SE <15%, read-out: IC50 COX-2 Human WB (literature) (converted)) is […]. Moreover, the IC50 at COX-1 [2] was greater than 1000 nM. Further, at COX-1 [3], the IC50 is greater than 1000 nM. Moreover, the IC50 on COX-1 [4] is greater than 8800 nM. This compound also registered an inhibition at 10 µM on 5-HT1B of 50%. Besides, the “inhibition of radioligand binding at all tested receptors, transporters, and binding sites” value in data set [5] is “less than 50%”. Further, the inhibition at 10 µM in data set [6] was found to be 53.7%.
On to `CS(=O)(=O)c1ccc(-c2nc(NCc3cccs3)cc(OCF)n2)cc1` [Compound 27, 6-(2-Fluoromethoxy)-2-(4-(methylsulfonyl)phenyl)-N-(thiophen-2-yl-methyl)pyrimidin-4-amine], for which the IC50 is 2.26 ± 0.45 nM at COX-2 [1], greater than 1000 nM at COX-1 [2], greater than 1000 nM at COX-1 [3] and 2.26 ± 0.63 nM on COX-2 [7]. Also, the “inhibition of radioligand binding at benzodiazepine (BzP)” value in the data set on benzodiazepine (BzP) stood at 50.8%. For the same compound, the “inhibition of radioligand binding at all tested receptors, transporters, and binding sites” value in data set [5] is on record as “less than 50%”.
In the case of `CS(=O)(=O)c1ccc(-c2ccsc2-c2ccc([18F])cc2)cc1` [[^18F]9, [^18F]desbromo-DuP-697], the logP in data set [8] is on record as 3.72. For the same compound, the brain entry entry in the data set with COX-2 [9] is “Brain penetrant”. In addition, the Ki on COX-2 [10] is 250 nM.
Take `CS(=O)(=O)c1ccc(-c2cc(C(F)(F)F)nc(NCc3ccc([18F])cc3)n2)cc1` [[^18F]10, [^18F]pyricoxib]: the pH-dependent lipophilicity (logD) in [8] is reported as 3.37.
For the compound `CS(=O)(=O)c1ccc(-c2nc(NCc3cccs3)cc(OCC[18F])n2)cc1` [[^18F]20], the log distribution coefficient (logD) in data set [11] was 2.94 ± 0.32.
Same read-out and setting: the figure for `[2H]C([2H])([18F])Oc1cc(NCc2cccs2)nc(-c2ccc(S(C)(=O)=O)cc2)n1` [[d2-^18F]27] is 3.7 ± 0.12.
